Laboratory results taken from paper PMC12583774 (Nature Communications, 2025).

Experiments:
[1] = tested on: SARS-CoV-2 strain (Wuhan-Hu-1); assay: microbe, parasite or virus in culture; assay type: cell-based; settings: Severe acute respiratory syndrome coronavirus 2, A549-ACE2, 24 h
[2] = tested on: SARS-CoV-2 nCoV-SH01 strain; parameters: species or system K18-hACE2 transgenic mice; settings: mouse, in vivo

Compound: CCC(CC)COC(=O)[C@H](C)N[P@](=O)(OC[C@H]1O[C@@](C#N)(c2ccc3c(N)ncnn23)[C@H](O)[C@@H]1O)Oc1ccccc1 [remdesivir]
- EC50 [1]: 60 nM
- SARS-CoV-2 N protein antigen staining in lungs (IHC) [2]: significantly reduced viral antigen staining
- lung pathological features (H&E) [2]: markedly alleviated
